Molecules are shown by their SMILES.

This note sets out measurements from ChEMBL document CHEMBL1125340, “Inhibition of hog liver folylpolyglutamate synthetase by 5-substituted 5,8-dideaza analogues of folic acid bearing a terminal L-ornithine residue” (J Med Chem, 1992).

For the assay, the system named is Folylpolyglutamate synthase (Sus scrofa). The assay is described as follows: The ratio of Kinetic constant Vmax / Binding constant Km at homogenous Hog Liver Folyl polyglutamate Synthetase (FPGS).

Turning to `NCCCC(NC(=O)c1ccc(CNc2ccc3nc(N)nc(O)c3c2F)cc1)C(=O)O` (centres undefined), the Ratio was found to be 64.

As to `NCCCC(NC(=O)c1ccc(NCc2ccc3nc(N)nc(O)c3c2C(F)(F)F)cc1)C(=O)O` (centres undefined), the Ratio is 121. For `NCCCC(NC(=O)c1ccc(CNc2ccc3nc(N)nc(O)c3c2Cl)cc1)C(=O)O` (centres undefined) the value was 102; for `NCCCC(NC(=O)c1ccc(CNc2ccc3nc(N)nc(O)c3c2C(F)(F)F)cc1)C(=O)O` (centres undefined), 118.
